For one experiment, the target named is T1, Soluble Aβ(1-40) (Homo sapiens, UniProt P05067).
T1 construct: Soluble Aβ(1-40)—2.2 mg/mL in deionized H2O
Put plainly: BASST (Beta-Amyloid Self-Seeding, Thioflavin T): inhibitors of self-seeded amyloid fibril growth. Format: biochemical. As to conditions: 30 μM soluble Aβ(1-40), 37° C., 3 to 5 hours, thioflavin T fluorescence. How it is done:
• 1) Prepare reaction mixture above by mixing components and storing on ice. • 2) Pipet 14.5 μL of reaction mixture into each of 50 wells on a polypropylene U-bottom 96-well microtiter plate on ice (Costar 3794). • 3) Add 1.7 μL of diluted compound to be tested to each well in a column of eight, including solvent control. Serial 3-fold dilutions from 1 mM (100 μM final) in assay buffer-urea=7 dilutions+zero. Each 96-well plate can therefore accommodate 11 samples+1 Congo Red control (0.039-5 μM final in 2-fold steps). • 4) Seal the plate with aluminum film (Beckman 538619) and incubate for 10 minutes on ice. • 5) Raise the temperature to 37° C. and incubate for 3 to 5 hours (depending on the lot of the peptide). • 6) Remove the aluminum film and add 200 μL/well of ice cold assay buffer with urea, collecting the radiolabeled fibrils by vacuum filtration through 0.2-μm pore size GVWP filters in 96-well plates (Millipore MAGV […], Bedford, Mass.). Determine the radioactivity of the filters using standard methods well-known to those skilled in the art. BASST (Beta-Amyloid Self-Seeding, Thioflavin T) An assay for inhibitors of self-seeded amyloid fibril growth Methods: Materials: Stock Solutions: Assay Buffer-50 mM sodium phosphate, pH 7.5, 100 mM NaCl, 0.02% NaN3, 1 M urea (filter and store at 4° C.) Soluble Aβ(1-40)-2.2 mg/mL in deionized H2O (store in aliquots at -20° C., keep on ice when thawed) will self-seed after 1 week storage. Typically, the solution should be stored until no lag phase is seen in the assay. Final assay conditions: 30 μM soluble Aβ(1-40) in deionized water in assay buffer. Compound to be tested is dissolved in DMSO, typically 5 to 50 mM stock, such that the final concentration of DMSO is <1% v/v in the assay. Assay: Reaction mixture for 50 assays (on ice) comprised of 1 μL of soluble Aβ(1-40)+13.5 μL assay buffer per assay. The following are the amounts of the components of the reaction mixture that result in each of the 50 assay wells. 50 μL soluble Aβ(1-40) 675 μL assay buffer Assay Method • 1) Prepare the reaction mix above by mixing the components and storing on ice. • 2) Pipet 14.5 μL of reaction mixture into each of 50 wells of a polystyrene U-bottom 96-well microtiter plate (Coming 25881-96) on ice. • 3) Add 1.7 μL of diluted compound to be tested to each well in a column of eight, including solvent control. Serial 3-fold dilutions from 1 mM (100 μM final) in assay buffer-urea=7 dilutions+zero. Each 96-well plate can therefore accommodate 11 samples+1 Congo Red control (0.039-5 μM final in 2-fold steps). • 4) Seal the plate with aluminum film and incubate for 10 minutes on ice. • 5) Raise the temperature to 37° C. and incubate for 3 to 5 hours (depends on the lot of the peptide). • 6) Remove the aluminum film and add 250 μL/well of 5 μM thioflavin T (ThT) [T-3516, Sigma-Aldrich] in 50 mM glycine-NaOH, pH 8.5. Read fluorescence on a plate reader (ex=440 nm/20 nm; em=485 nm/20 nm) within 5 minutes. BAPA (Beta-Amyloid Peptide Aggregation)

In a further experiment the target is T2, Aβ (1-42) (Homo sapiens, UniProt P05067).
T2 construct: Required Aβ (1-42) (California Peptide); purchased California Peptide
T2 sequence (P05067 672-713 limits assumed): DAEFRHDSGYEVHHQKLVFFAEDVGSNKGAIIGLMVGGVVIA
Put plainly: Batym Assay: Aβ (1-42) aggregation, Thioflavin T fluorescence. Format: biochemical. As to conditions: Aβ1-42 final 100 μM, 37° C., 1 day, read-out: BAYTM IC50. On the procedure:
Required Aβ (1-42) (California Peptide) was dried from its HFIP stock solution. The Aβ (1-42) was dissolved in DMSO and then mixed with phosphate buffered saline (PBS) (pH 7.4). The mixed Aβ (1-42) solution was filtered with a Omnipore membrane 0.2-μm syringe filter (Millipore, Bedford, Mass.). The compound to be tested in DMSO (50× concentrate) was put into each well (0.5 μL/well) of a 96-well plate. The Aβ (1-42) solution was added into each well (24.5 μL/well). The plate was centrifuged at 1,000 g for 5 minutes and incubated at 37° C. for 1 day (Aβ1-42; final concentration 100 μM).
After incubation, Thioflavin T (ThT) (30 μM) solution in glycine-NaOH buffer (pH 8.5, 50 mM) was added into each well (250 μL/well), fluorescence was measured (ex=440/20 nm; em=485/20 nm) using a fluorescence plate reader. The inhibitory activity was calculated as the reduction of fluorescence with the following formula: Inhibition (%)={(F(Aβ)−F(Aβ+compound)}/{F(Aβ)−[…]}×100
The IC50s were calculated by a curve fitting program using the following equation. The data were obtained from two different experiments in triplicate. Inhibition (x)=100−100/{1+(x/IC50)^n}. • x=concentration of tested compound (M). • IC50=(M). • n=Hill coefficient.

Drawing on US6949575B2, “Method of inhibiting amyloid protein aggregation and imaging amyloid deposits using aminoindane derivatives” (Pfizer Inc., priority 2000, dated 2005), this text covers IC50 for six molecules.

Values joined by “and” are separate entries in the source; they are usually repeats but may differ in a detail not shown here. Identical values can stand only once.

The term IC50 denotes the concentration that inhibits the measured activity by half.

T1 sequence (P05067 672-711 limits assumed): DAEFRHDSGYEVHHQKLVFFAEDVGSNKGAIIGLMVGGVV

`CCCCCN(CCCCC)C1Cc2ccc(Nc3ccc([N+](=O)[O-])cc3C(=O)O)cc2C1` (stereo not drawn) [Example 1, 2-[(2-N,N-di-n-pentylamino)-indan-5-yl]amino-5-nitro-benzoic Acid]: the IC50 at Soluble Aβ(1-40) was 40 µM; at Aβ (1-42) it was more than 100 µM.
For the molecule `COc1ccc(Nc2ccc3c(c2)CC(NCc2ccc(Cl)c(Cl)c2)C3)c(C(=O)O)c1` (stereo not drawn) [Example 5, 2-[2-(3,4-Dichlorobenzylamino)-indan-5-ylamino]-5-methoxy-benzoic acid], the IC50 was 30 µM against Soluble Aβ(1-40) and more than 100 µM at Aβ (1-42).
With `CCCCCN(CCCCC)C1Cc2ccc(Nc3ccc(C)cc3C(=O)O)cc2C1` (stereo not drawn) [Example 6, 2-(2-Dipentylamino-indan-5-yl-amino)-5-methyl-benzoic acid], the IC50 against Soluble Aβ(1-40) was 21 µM and > 100 µM; at Aβ (1-42), more than 100 µM.
On to `CCCCCN(CCCCC)C1Cc2ccc(Nc3ccc(C(=O)O)cc3[N+](=O)[O-])cc2C1` (stereo not drawn) [Example 7, 4-(2-Dipentylamino-indan-5-yl-amino)-3-nitro-benzoic Acid], for which the 50% inhibitory concentration (IC50) on Soluble Aβ(1-40) is 8 µM; on Aβ (1-42), more than 100 µM.
Taken in the same sequence, the figures for `O=C(O)c1cc([N+](=O)[O-])ccc1Nc1ccc2c(c1)CC(NCc1ccc(F)cc1)C2` (stereo not drawn) [Example 10, 2-[2-(4-Fluorobenzylamino)-indan-5-ylamino]-5-nitro-benzoic acid] were 30 µM and 53.8 µM.
As to `CCCCCNC1Cc2ccc(Nc3ccc([N+](=O)[O-])cc3C(=O)O)cc2C1` (stereo not drawn) [Example 12, 2-[2-(n-Pentylamino)-indan-5-ylamino]-5-nitro-benzoic acid], the IC50 at Soluble Aβ(1-40) and on Aβ (1-42) was more than 100 µM in each case.
